Measured values as given in patent US8129398B2 (priority 2008, dated 2012).

The compounds below were run against T1, HIV-integrase (Human immunodeficiency virus type 1 group M subtype B, UniProt P12497) (assay: HIV-Integrase Inhibition Activity (SPA bead integration assay with P33 labeled target DNA)). Conditions: recombinant integrase, class symbols; read-out: in vitro activity.
T1 construct: Recombinant integrase (0.26 ng) was incubated with the beads
Assay type: biochemical
How it was run: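 Strand integration read as bead-proximity CPM after P33 target DNA (0.1 fmol) and inhibitor were added to washed integrase–substrate DNA complexes on SPA beads. Enzyme bound 90 min at 37° C; EDTA (10 mM final) terminated reaction; IC50 graded A/B/C.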

Compound | IC50
O=C(NC12CCC(CCn3c1nc(C(=O)NCc1ccc(F)cc1)c(O)c3=O)C2)C(=O)N1CCC(F)CC1 (stereo not drawn) [Example 203, 8,1,1-Methano-4H-pyrimido[1,2-a]azocine-2-carboxamide, N-[(4-fluorophenyl)methyl]-11-[[2-(4-fluoro-1-piperidinyl)-1,2-dioxoethyl]amino]-6,7,8,9,10,11-hexahydro-3-hydroxy-4-oxo-] | < 10 nM
CCN(C)C(=O)C(=O)NC12CCC(CCn3c1nc(C(=O)NCc1ccc(F)cc1)c(O)c3=O)C2 (stereo not drawn) [Example 204] | < 10 nM
COCCN(C)C(=O)C(=O)NC12CCC(CCn3c1nc(C(=O)NCc1ccc(F)cc1)c(O)c3=O)C2 (stereo not drawn) [Example 205, Ethanediamide, N′-[2-[[[(4-fluorophenyl)methyl]amino]carbonyl]-7,8,9,10-tetrahydro-3-hydroxy-4-oxo-8,11-methano-4H-pyrimido[1,2-a]azocin-11(6H)-yl]-N-(2-methoxyethyl)-N-methyl-] | < 10 nM
CC(C)N(C)C(=O)C(=O)NC12CCC(CCn3c1nc(C(=O)NCc1ccc(F)cc1)c(O)c3=O)C2 (stereo not drawn) [Example 206, Ethanediamide, N′-[2-[[[(4-fluorophenyl)methyl]amino]carbonyl]-7,8,9,10-tetrahydro-3-hydroxy-4-oxo-8,11-methano-4H-pyrimido[1,2-a]azocin-11(6H)-yl]-N-methyl-N-(1-methylethyl)-] | < 10 nM
O=C(NC12CCC(CCn3c1nc(C(=O)NCc1ccc(F)cc1)c(O)c3=O)C2)C(=O)N1CC[C@H](F)C1 (stereo partly drawn) [Example 207, 8,11-Methano-4H-pyrimido[1,2-a]azocine-2-carboxamide, N-[(4-fluorophenyl)methyl]-11-[[2-[(3S)-3-fluoro-1-pyrrolidinyl]-1,2-dioxoethyl]amino]-6,7,8,9,10,11-hexahydro-3-hydroxy-4-oxo-] | < 10 nM
O=C(NC12CCC(CCn3c1nc(C(=O)NCc1ccc(F)cc1)c(O)c3=O)C2)C(=O)N1CC[C@@H](F)C1 (stereo partly drawn) [Example 208, 8,11-Methano-4H-pyrimido[1,2-a]azocine-2-carboxamide, N-[(4-fluorophenyl)methyl]-11-[[2-[(3R)-3-fluoro-1-pyrrolidinyl]-1,2-dioxoethyl]amino]-6,7,8,9,10,11-hexahydro-3-hydroxy-4-oxo-] | < 10 nM
CN(CCF)C(=O)C(=O)NC12CCC(CCn3c1nc(C(=O)NCc1ccc(F)cc1)c(O)c3=O)C2 (stereo not drawn) [Example 209, Ethanediamide, N-(2-fluoroethyl)-N′-[2-[[[(4-fluorophenyl)methyl]amino]carbonyl-7,8,9,10-tetrahydro-3-hydroxy-4-oxo-8,11-methano-4H-pyrimido[1,2-a]azocin-1](6H)-yl]-N-methyl] | < 10 nM
COC(=O)C(=O)NC12CCC(CCn3c1nc(C(=O)NCc1ccc(F)cc1)c(O)c3=O)C2 (stereo not drawn) [Example 210, Acetic acid, [[2-[[[(4-fluorophenyl)methyl]amino]carbonyl]-7,8,9,10-tetrahydro-3-hydroxy-4-oxo-8,1′-methano-4H-pyrimido[1,2-a]azocin-11(6H)-yl]amino]oxo-, methyl ester] | < 10 nM
CN(C)C(=O)C(=O)N(C)C12CCC(CCn3c1nc(C(=O)NCc1ccc(F)cc1)c(O)c3=O)C2 (stereo not drawn) [Example 211, Ethanediamide, N-[2-[[[(4-fluorophenyl)methyl]amino]carbonyl]-7,8,9,10-tetrahydro-3-hydroxy-4-oxo-8,11-methano-4H-pyrimido[1,2-a]azocin-11(6H)-yl]-N,N′,N′-trimethyl-] | < 10 nM
Cc1cc(CNC(=O)c2nc3n(c(=O)c2O)CCC2CCC3(NC(=O)C(=O)N(C)C)C2)ccc1F (stereo not drawn) [Example 212, Ethanediamide, N′-[2-[[[(4-fluoro-3-methylphenyl)methyl]amino]carbonyl]-7,8,9,10-tetrahydro-3-hydroxy-4-oxo-8,11-methano-4H-pyrimido[1,2-a]azocin-11(6H)-yl]-N,N-dimethyl-] | < 10 nM
CN(C)C(=O)C(=O)NC12CCC(CCn3c1nc(C(=O)NCc1ccc(F)c(Cl)c1)c(O)c3=O)C2 (stereo not drawn) [Example 213, Ethanediamide, N′-[2-[[[(3-chloro-4-fluorophenyl)methyl]amino]carbonyl]-7,8,9,10-tetrahydro-3-hydroxy-4-oxo-8,11-methano-4H-pyrimido[1,2-a]azocin-11(6H)-yl]-N,N-dimethyl-] | < 10 nM
CN(C)C(=O)C(=O)NC12CCC(CCn3c1nc(C(=O)NCc1ccc(F)c(F)c1)c(O)c3=O)C2 (stereo not drawn) [Example 214, Ethanediamide, N′-[2-[[[(3,4-difluorophenyl)methyl]amino]carbonyl]-7,8,9,10-tetrahydro-3-hydroxy-4-oxo-8,11-methano-4H-pyrimido[1,2-a]azocin-11(6H)-yl]-N,N-dimethyl] | < 10 nM
O=C(NC12CCC(CCn3c1nc(C(=O)NCc1ccc(F)c(Cl)c1)c(O)c3=O)C2)C(=O)N1CC[C@@H](F)C1 (stereo partly drawn) [Example 215, 8,11-Methano-4H-pyrimido[1,2-a]azocine-2-carboxamide, N-[(3-chloro-4-fluorophenyl)methyl]-11-[[2-[(3R)-3-fluoro-1-pyrrolidinyl]-1,2-dioxoethyl]amino]-6,7,8,9,10,11-hexahydro-3-hydroxy-4-oxo-] | < 10 nM
Cc1cc(CNC(=O)c2nc3n(c(=O)c2O)CCC2CCC3(NC(=O)C(=O)N3CC[C@@H](F)C3)C2)ccc1F (stereo partly drawn) [Example 216, 8,11-Methano-4H-pyrimido[1,2-a]azocine-2-carboxamide, N-[(4-fluoro-3-methylphenyl)methyl]-11-[[2-[(3R)-3-fluoro-1-pyrrolidinyl]-1,2-dioxoethyl]amino]-6,7,8,9,10,11-hexahydro-3-hydroxy-4-oxo-] | < 10 nM
O=C(NC12COC(CCn3c1nc(C(=O)NCc1ccc(F)cc1)c(O)c3=O)C2)OCc1ccccc1 (stereo not drawn) [Example 217, Benzyl (2-((4-fluorobenzyl)carbamoyl)-3-hydroxy-4-oxo-7,8-dihydro-4 H,6H-8,11-methanopyrimido[2,1-d][1,5]oxazocin-11(10H)-yl)carbamate] | < 10 nM
CN(C)C(=O)C(=O)NC12COC(CCn3c1nc(C(=O)NCc1ccc(F)cc1)c(O)c3=O)C2 (stereo not drawn) [Example 218, N′-(2-((4-Fluorobenzyl)carbamoyl)-3-hydroxy-4-oxo-7,8-dihydro-4 H,6H-8,11-methanopyrimido[2,1-d][1,5]oxazocin-11(10H)-yl)-N,N-dimethylethanediamide] | < 10 nM
NC12CCC(Cn3c1nc(C(=O)NCc1ccc(F)cc1)c(O)c3=O)OC2 (stereo not drawn) [Example 220, 10-Amino-N-(4-fluorobenzyl)-3-hydroxy-4-oxo-4,6,7,8,9,10-hexahydro-7,10-(epoxymethano)pyrimido[1,2-a]azepine-2-carboxamide] | 10 to 100 nM
CC(=O)NC12CCC(Cn3c1nc(C(=O)NCc1ccc(F)cc1)c(O)c3=O)OC2 (stereo not drawn) [Example 221, 10-(Acetylamino)-N-(4-fluorobenzyl)-3-hydroxy-4-oxo-4,6,7,8,9,10-hexahydro-7,10-(epoxymethano)pyrimido[1,2-a]azepine-2-carboxamide] | < 10 nM
CN(C)C(=O)C(=O)NC12CCC(Cn3c1nc(C(=O)NCc1ccc(F)cc1)c(O)c3=O)OC2 (stereo not drawn) [Example 222, N′-(2-((4-Fluorobenzyl)carbamoyl)-3-hydroxy-4-oxo-6,7,8,9-tetrahydro-7,10-(epoxymethano)pyrimido[1,2-a]azepin-10(4H)-yl)-N,N-dimethylethanediamide] | < 10 nM
COCCOC12CCC(CC1)Cn1c2nc(C(=O)NCc2ccc(F)cc2)c(O)c1=O [Example 225, 7,10-Ethanopyrimido[1,2-a]azepine-2-carboxamide, N-[(4-fluorophenyl)methyl]-4,6,7,8,9,10-hexahydro-3-hydroxy-10-(2-methoxyethoxy)-4-oxo-] | < 10 nM
CN(C)C(=O)COC12CCC(CC1)Cn1c2nc(C(=O)NCc2ccc(F)cc2)c(O)c1=O [Example 226, 7,10-Ethanopyrimido[1,2-a]azepine-2-carboxamide, 10-[2-(dimethylamino)-2-oxoethoxy]-N-[(4-fluorophenyl)methyl]-4,6,7,8,9,10-hexahydro-3-hydroxy-4-oxo-] | 10 to 100 nM
Cc1ccc(CNC(=O)c2nc3n(c(=O)c2O)CC2CCC3(NC(=O)C(=O)N(C)C)CC2)o1 [Example 234] | < 10 nM
CN(C)C(=O)C(=O)NC12CCC(CC1)Cn1c2nc(C(=O)NCc2c[nH]c3ccccc23)c(O)c1=O [Example 235, Ethanediamide, N,N-dimethyl-N′-[6,7,8,9-tetrahydro-3-hydroxy-2-[[(1H-indol-3-ylmethyl)amino]carbonyl]-4-oxo-7,10-ethanopyrimido[1,2-a]azepin-10(4H)-yl]-] | < 10 nM
Cc1cc(CNC(=O)c2nc3n(c(=O)c2O)CC2CCC3(NC(=O)C(=O)N(C)C)CC2)nn1C(C)(C)C [Example 236, Ethanediamide, N′-[2-[[[[1-(1,1-dimethylethyl)-5-methyl-1H-pyrazol-3-yl]methyl]amino]carbonyl]-6,7,8,9-tetrahydro-3-hydroxy-4-oxo-7,10-ethanopyrimido[1,2-a]azepin-10(4H)-yl]-N,N-dimethyl-] | 10 to 100 nM
Cc1ccc(C(=O)NC23CCC(CC2)Cn2c3nc(C(=O)NCc3ccc(F)cc3)c(O)c2=O)o1 [Example 237, 7,10-Ethanopyrimido[1,2-a]azepine-2-carboxamide, N-[(4-fluorophenyl)methyl]-4,6,7,8,9,10-hexahydro-3-hydroxy-10-[[(5-methyl-2-furanyl)carbonyl]amino]-4-oxo-] | < 10 nM
O=C(NCc1ccc(F)cc1)c1nc2n(c(=O)c1O)CC1CCC2(NC(=O)C2CCOC2)CC1 (stereo not drawn) [Example 238, 7,10-Ethanopyrimido[1,2-a]azepine-2-carboxamide, N-[(4-fluorophenyl)methyl]-4,6,7,8,9,10-hexahydro-3-hydroxy-4-oxo-10-[[(tetrahydro-3-furanyl)carbonyl]amino]-] | < 10 nM
O=C(NC12CCC(CC1)Cn1c2nc(C(=O)NCc2ccc(F)cc2)c(O)c1=O)c1ccc2nccn2c1 [Example 239, 7,10-Ethanopyrimido[1,2-a]azepine-2-carboxamide, N-[(4-fluorophenyl)methyl]-4,6,7,8,9,10-hexahydro-3-hydroxy-10-[(imidazo[1,2-a]pyridin-6-ylcarbonyl)amino]-4-oxo-] | < 10 nM
